From PubChem BioAssay (NCI)
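Results reflect a 48-hour exposure of cells in 96-well plates to compound at five concentrations. Here, GI50 denotes the concentration required for 50% inhibition of growth. The concentration for full growth arrest is given as TGI.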

How the values were obtained:
Test in all cases: NCI anticancer screen, dose series, 48 h
786-0 renal = system: 786-0 renal
A498 renal = system: A498 renal
ACHN renal = system: ACHN renal
BT-549 breast = system: BT-549 breast
CAKI-1 renal = system: CAKI-1 renal
CCRF-CEM leukemia = system: CCRF-CEM leukemia
DU-145 prostate = system: DU-145 prostate
EKVX NSCLC = system: EKVX NSCLC
HCC-2998 colon = system: HCC-2998 colon
HCT-116 colon = system: HCT-116 colon
HCT-15 colon = system: HCT-15 colon
HL-60(TB) leukemia = system: HL-60(TB) leukemia
HOP-92 NSCLC = system: HOP-92 NSCLC
HS 578T breast = system: HS 578T breast
HT29 colon = system: HT29 colon
IGROV1 ovarian = system: IGROV1 ovarian
K-562 leukemia = system: K-562 leukemia
KM12 colon = system: KM12 colon
LOX IMVI melanoma = system: LOX IMVI melanoma
M14 melanoma = system: M14 melanoma
MALME-3M melanoma = system: MALME-3M melanoma
MCF7 breast = system: MCF7 breast
MDA-MB-231 breast = system: MDA-MB-231 breast
MDA-MB-435 = system: MDA-MB-435
NCI-H23 lung = system: NCI-H23 lung
NCI-H522 lung = system: NCI-H522 lung
NCI/ADR-RES ovarian = system: NCI/ADR-RES ovarian
OVCAR-3 ovarian = system: OVCAR-3 ovarian
OVCAR-4 ovarian = system: OVCAR-4 ovarian
OVCAR-5 ovarian = system: OVCAR-5 ovarian
PC-3 prostate = system: PC-3 prostate
RPMI-8226 leukemia = system: RPMI-8226 leukemia
RXF 393 renal = system: RXF 393 renal
SF-295 CNS = system: SF-295 CNS
SF-539 CNS = system: SF-539 CNS
SK-MEL-2 melanoma = system: SK-MEL-2 melanoma
SK-MEL-28 melanoma = system: SK-MEL-28 melanoma
SK-MEL-5 melanoma = system: SK-MEL-5 melanoma
SNB-19 CNS = system: SNB-19 CNS
SNB-75 CNS = system: SNB-75 CNS
SR leukemia = system: SR leukemia
SW-620 colon = system: SW-620 colon
T-47D breast = system: T-47D breast
TK-10 renal = system: TK-10 renal
UACC-257 melanoma = system: UACC-257 melanoma
UACC-62 melanoma = system: UACC-62 melanoma
UO-31 renal = system: UO-31 renal

Question: With `COc1ccc(NC(=O)Nc2ccccc2CNc2nc(Nc3ccc(OCCN4CCCC4)cc3)ncc2Cl)cc1` as the compound, how does the GI50 (786-0 renal) read?
Answer: The GI50 was 0.882 µM.

Question: What about the TGI (786-0 renal) of the same compound?
Answer: Its TGI is 1.64 µM.

Question: What about the GI50 (A498 renal) of the same compound?
Answer: Its GI50 is 0.963 µM.

Question: What about the TGI (A498 renal) of the same compound?
Answer: Its TGI is 3.27 µM.

Question: And the GI50 (ACHN renal)?
Answer: The GI50 was 0.862 µM.

Question: And the TGI (ACHN renal)?
Answer: Its TGI is 1.55 µM.

Question: And the GI50 (BT-549 breast)?
Answer: Its GI50 is 0.788 µM.

Question: What about the TGI (BT-549 breast) of the same compound?
Answer: The TGI was 1.54 µM.

Question: And the GI50 (CAKI-1 renal)?
Answer: The GI50 was 0.867 µM.

Question: And the TGI (CAKI-1 renal)?
Answer: Its TGI is 1.61 µM.

Question: And the GI50 (CCRF-CEM leukemia)?
Answer: Its GI50 is 1.68 µM.

Question: And the TGI (CCRF-CEM leukemia)?
Answer: Its TGI is over 50 µM.

Question: What about the GI50 (DU-145 prostate) of the same compound?
Answer: The GI50 was 1.24 µM.

Question: And the TGI (DU-145 prostate)?
Answer: The TGI was 3.42 µM.

Question: What about the GI50 (EKVX NSCLC) of the same compound?
Answer: The GI50 was 2.65 µM.

Question: What about the TGI (EKVX NSCLC) of the same compound?
Answer: Its TGI is 9.45 µM.

Question: And the GI50 (HCC-2998 colon)?
Answer: Its GI50 is 1.01 µM.

Question: What about the TGI (HCC-2998 colon) of the same compound?
Answer: The TGI was 2.18 µM.

Question: And the GI50 (HCT-116 colon)?
Answer: The GI50 was 0.902 µM.

Question: And the TGI (HCT-116 colon)?
Answer: Its TGI is 1.75 µM.

Question: And the GI50 (HCT-15 colon)?
Answer: The GI50 was 0.878 µM.

Question: What about the TGI (HCT-15 colon) of the same compound?
Answer: Its TGI is 1.76 µM.

Question: And the GI50 (HL-60(TB) leukemia)?
Answer: The GI50 was 1.15 µM.

Question: And the TGI (HL-60(TB) leukemia)?
Answer: Its TGI is 2.59 µM.

Question: And the GI50 (HOP-92 NSCLC)?
Answer: The GI50 was 0.877 µM.

Question: What about the TGI (HOP-92 NSCLC) of the same compound?
Answer: Its TGI is 2.37 µM.

Question: And the GI50 (HS 578T breast)?
Answer: Its GI50 is 1.01 µM.

Question: What about the TGI (HS 578T breast) of the same compound?
Answer: Its TGI is 2.38 µM.

Question: What about the GI50 (HT29 colon) of the same compound?
Answer: The GI50 was 1.1 µM.

Question: What about the TGI (HT29 colon) of the same compound?
Answer: Its TGI is 2.6 µM.

Question: What about the GI50 (IGROV1 ovarian) of the same compound?
Answer: Its GI50 is 0.894 µM.

Question: What about the TGI (IGROV1 ovarian) of the same compound?
Answer: The TGI was 1.66 µM.

Question: And the GI50 (K-562 leukemia)?
Answer: Its GI50 is 1.63 µM.

Question: And the TGI (K-562 leukemia)?
Answer: The TGI was over 50 µM.

Question: What about the GI50 (KM12 colon) of the same compound?
Answer: The GI50 was 0.947 µM.

Question: What about the TGI (KM12 colon) of the same compound?
Answer: The TGI was 1.77 µM.

Question: And the GI50 (LOX IMVI melanoma)?
Answer: Its GI50 is 0.894 µM.

Question: What about the TGI (LOX IMVI melanoma) of the same compound?
Answer: The TGI was 1.64 µM.

Question: And the GI50 (M14 melanoma)?
Answer: The GI50 was 0.833 µM.

Question: And the TGI (M14 melanoma)?
Answer: Its TGI is 1.64 µM.

Question: What about the GI50 (MALME-3M melanoma) of the same compound?
Answer: Its GI50 is 0.845 µM.

Question: What about the TGI (MALME-3M melanoma) of the same compound?
Answer: The TGI was 1.58 µM.

Question: What about the GI50 (MCF7 breast) of the same compound?
Answer: The GI50 was 0.926 µM.

Question: And the TGI (MCF7 breast)?
Answer: Its TGI is 1.78 µM.

Question: What about the GI50 (MDA-MB-231 breast) of the same compound?
Answer: Its GI50 is 0.953 µM.

Question: What about the TGI (MDA-MB-231 breast) of the same compound?
Answer: Its TGI is 1.74 µM.

Question: And the GI50 (MDA-MB-435)?
Answer: Its GI50 is 0.874 µM.

Question: And the TGI (MDA-MB-435)?
Answer: Its TGI is 1.61 µM.

Question: And the GI50 (NCI-H23 lung)?
Answer: The GI50 was 2.01 µM.

Question: And the TGI (NCI-H23 lung)?
Answer: The TGI was 8.72 µM.

Question: What about the GI50 (NCI-H522 lung) of the same compound?
Answer: The GI50 was 1.04 µM.

Question: And the TGI (NCI-H522 lung)?
Answer: The TGI was 2.31 µM.

Question: And the GI50 (NCI/ADR-RES ovarian)?
Answer: The GI50 was 1.1 µM.

Question: What about the TGI (NCI/ADR-RES ovarian) of the same compound?
Answer: The TGI was 2.64 µM.

Question: And the GI50 (OVCAR-3 ovarian)?
Answer: The GI50 was 0.923 µM.

Question: What about the TGI (OVCAR-3 ovarian) of the same compound?
Answer: The TGI was 1.73 µM.

Question: And the GI50 (OVCAR-4 ovarian)?
Answer: The GI50 was 0.879 µM.

Question: And the TGI (OVCAR-4 ovarian)?
Answer: The TGI was 1.69 µM.

Question: And the GI50 (OVCAR-5 ovarian)?
Answer: The GI50 was 1.02 µM.

Question: And the TGI (OVCAR-5 ovarian)?
Answer: Its TGI is 2.08 µM.

Question: And the GI50 (PC-3 prostate)?
Answer: Its GI50 is 1.2 µM.

Question: What about the TGI (PC-3 prostate) of the same compound?
Answer: The TGI was 2.96 µM.

Question: What about the GI50 (RPMI-8226 leukemia) of the same compound?
Answer: The GI50 was 1.73 µM.

Question: And the TGI (RPMI-8226 leukemia)?
Answer: The TGI was over 50 µM.

Question: And the GI50 (RXF 393 renal)?
Answer: Its GI50 is 0.828 µM.

Question: And the TGI (RXF 393 renal)?
Answer: Its TGI is 1.64 µM.

Question: And the GI50 (SF-295 CNS)?
Answer: The GI50 was 0.853 µM.

Question: What about the TGI (SF-295 CNS) of the same compound?
Answer: The TGI was 1.6 µM.

Question: What about the GI50 (SF-539 CNS) of the same compound?
Answer: Its GI50 is 0.825 µM.

Question: And the TGI (SF-539 CNS)?
Answer: Its TGI is 1.54 µM.

Question: What about the GI50 (SK-MEL-2 melanoma) of the same compound?
Answer: The GI50 was 1.12 µM.

Question: And the TGI (SK-MEL-2 melanoma)?
Answer: Its TGI is 2.58 µM.

Question: And the GI50 (SK-MEL-28 melanoma)?
Answer: Its GI50 is 0.87 µM.

Question: What about the TGI (SK-MEL-28 melanoma) of the same compound?
Answer: The TGI was 1.62 µM.

Question: And the GI50 (SK-MEL-5 melanoma)?
Answer: Its GI50 is 0.849 µM.

Question: And the TGI (SK-MEL-5 melanoma)?
Answer: Its TGI is 1.55 µM.

Question: And the GI50 (SNB-19 CNS)?
Answer: The GI50 was 2.14 µM.

Question: What about the TGI (SNB-19 CNS) of the same compound?
Answer: The TGI was 9.2 µM.

Question: What about the GI50 (SNB-75 CNS) of the same compound?
Answer: Its GI50 is 0.755 µM.

Question: And the TGI (SNB-75 CNS)?
Answer: Its TGI is 1.45 µM.

Question: What about the GI50 (SR leukemia) of the same compound?
Answer: The GI50 was 1.54 µM.

Question: And the TGI (SR leukemia)?
Answer: Its TGI is over 50 µM.

Question: What about the GI50 (SW-620 colon) of the same compound?
Answer: The GI50 was 1.05 µM.

Question: And the TGI (SW-620 colon)?
Answer: Its TGI is 2.5 µM.

Question: What about the GI50 (T-47D breast) of the same compound?
Answer: The GI50 was 1.02 µM.

Question: And the TGI (T-47D breast)?
Answer: The TGI was 2.54 µM.

Question: And the GI50 (TK-10 renal)?
Answer: Its GI50 is 0.99 µM.

Question: And the TGI (TK-10 renal)?
Answer: The TGI was 1.98 µM.

Question: And the GI50 (UACC-257 melanoma)?
Answer: Its GI50 is 0.926 µM.

Question: And the TGI (UACC-257 melanoma)?
Answer: Its TGI is 1.73 µM.

Question: And the GI50 (UACC-62 melanoma)?
Answer: The GI50 was 0.869 µM.

Question: What about the TGI (UACC-62 melanoma) of the same compound?
Answer: The TGI was 1.63 µM.

Question: What about the GI50 (UO-31 renal) of the same compound?
Answer: Its GI50 is 0.763 µM.

Question: What about the TGI (UO-31 renal) of the same compound?
Answer: Its TGI is 1.44 µM.
